We go through 1 molecule from patent publication US6110933A, “Amino acid derivatives and their use as phospholipase A2 inhibitor” (Fujisawa Pharmaceutical Co., Ltd., priority 1994, dated 2000).

One test relates to PLA2 group II. Description: Inhibition of PLA2 group II. Type of test: biochemical. As to conditions: no concentration or figure given.
The next test relates to PLA2 group I. Description: Test on the inhibitory effect against phospholipase A2 (PLA2). It counts as biochemical. As to conditions: 83 ng/ml; PLA2 group I from porcine pancreas; preincubated with enzyme at 37° C. for 30 minutes; 5 μM [14C]phosphatidylcholine, pH 7.4. The protocol: Test on the inhibitory effect against phospholipase A2 (PLA2)
The substrate, [^14 C]phosphatidylcholine (L-3-phosphatidylcholine, 1-stearyl-2-[1-^14 C]arachidonyl, was dried under N2 gas and suspended in deionized water with a probe sonicater. The standard reaction mixture in a total volume of 800 μl contained Tris-HCl buffer (10 mM, pH 7.4), CaCl2 (5 mM) and 10 ng/ml enzyme, PLA2 group I (from porcine pancreas, 700 units/mg, Boehringer Mannheim Yamanouchi Co., Ltd.). The reaction was started by addition of 5 μM [^14 C]phosphatidylcholine (L-3-phosphatidylcholine, 1-stearyl-2-[1-^14 C]arachidonyl to the enzyme solution. Following incubation at 37° C. for 30 minutes, the reaction was terminated by addition of 2 ml of Dole's reagent^1). To determine the release of ^14 C-arachidonic acid from the phospholipid substrate, free fatty acid was extracted by the method of Natori et al^2), and counted in 8 ml of Liquifluor (Du Pont, New England Nuclear). On the inhibition assay, inhibitor or vehicle was preincubated with enzyme at 37° C. for 30 minutes. Each sample was dissolved in methanol (1.25% final). All data are the average of at least duplicate determinations corrected for none enzymatic hydrolysis. Data were expressed as percent inhibition.

As for `CCCCCCCCCCCCC[C@@H](CC(N)=O)OC(=O)[C@H](CCCC(=O)O)NC(=O)c1ccc(OC)cc1` [Example 9, (3S)-3-[(2S)-5-Carboxy-2-(p-methoxybenzoylamino)-pentanoyl]oxyhexadecanamide], the “inhibition of PLA2 group II” value in the test on PLA2 group II is reported as “inhibited”. In the test with PLA2 group I, this molecule gave a Percent inhibition of 87.1%.
